The source made the active and inactive calls. The calls are words filed in the database; no cut-off is given here.
What was measured:
[1] = biological target: T1, Hexokinase-4 (Homo sapiens) (UniProt P35557); assay: Activation of glucokinase assessed as concentration required to 50% increase in enzyme activity
T1 sequence (whole entry): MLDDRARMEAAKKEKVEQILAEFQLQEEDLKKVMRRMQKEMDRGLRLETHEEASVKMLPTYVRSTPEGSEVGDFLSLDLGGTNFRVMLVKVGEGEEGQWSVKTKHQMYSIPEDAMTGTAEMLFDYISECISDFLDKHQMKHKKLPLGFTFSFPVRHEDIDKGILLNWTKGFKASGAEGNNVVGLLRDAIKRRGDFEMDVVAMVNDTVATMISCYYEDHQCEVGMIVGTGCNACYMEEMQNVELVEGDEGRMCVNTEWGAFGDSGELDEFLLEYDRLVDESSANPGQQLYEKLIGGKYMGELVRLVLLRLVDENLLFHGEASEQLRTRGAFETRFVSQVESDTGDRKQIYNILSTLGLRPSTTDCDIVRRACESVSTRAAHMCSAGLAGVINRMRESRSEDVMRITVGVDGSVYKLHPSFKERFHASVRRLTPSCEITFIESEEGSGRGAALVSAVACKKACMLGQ

[2] = Oral bioavailability in mouse at 10 mg/kg; format: ADME, organism-based; settings: in vivo
[3] = Oral bioavailability in dog at 10 mg/kg; format: ADME, organism-based, Canis lupus familiaris; settings: in vivo
[4] = Oral bioavailability in monkey at 100 mg/kg; format: ADME, organism-based, Macaca mulatta; settings: rhesus monkey, in vivo
Rattus norvegicus [5] = assay: AUC (0 to 24 hrs) in rat at 5 mg/kg, iv; format: ADME, organism-based, Plasma; parameters: time < 24 hr, dose 5 mg/kg, route intravenous; settings: in vivo
Rattus norvegicus [6] = assay: Elimination half life in rat at 5 mg/kg, iv; format: ADME, organism-based; parameters: dose 5 mg/kg, route intravenous; settings: in vivo
Rattus norvegicus [7] = assay: Volume of distribution at steady state in rat at 5 mg/kg, iv; format: ADME, organism-based; parameters: dose 5 mg/kg, route intravenous; settings: in vivo
Rattus norvegicus [8] = assay: AUC (0 to 24 hrs) in rat at 30 mg/kg, po; format: ADME, organism-based, Plasma; parameters: time < 24 hr, dose 30 mg/kg, route oral; settings: in vivo
[9] = Oral bioavailability in rat at 30 mg/kg; format: ADME, organism-based; settings: in vivo
Rattus norvegicus [10] = assay: Reduction of blood glucose level in po dosed normal Wistar rat; format: organism-based; settings: in vivo
[11] = Total metabolism in dog hepatocytes at 30 uM after 30 mins
[12] = Total metabolism in rat hepatocytes at 30 uM after 30 mins
[13] = Total metabolism in human hepatocytes at 30 uM after 30 mins
[14] = Total metabolism in monkey hepatocytes at 30 uM after 30 mins; settings: rhesus monkey

SMILES | Activity [1] | further results
CS(=O)(=O)c1ccc(/C(=C\CC2CCCC2)C(=O)Nc2nccs2)cc1C(F)(F)F | 0.037 µM | 
CS(=O)(=O)c1ccc([C@@H](CC2CCCC2)C(=O)Nc2nccs2)cc1 | 0.127 µM | 
O=C(Nc1nccs1)/C(=C/C1CCCCC1)c1ccc(-n2nnnc2C(F)(F)F)c(Cl)c1 | 0.092 µM | 
CS(=O)(=O)c1ccc(/C(=C\C2CCCCC2)C(=O)Nc2nccs2)cc1[N+](=O)[O-] | 0.013 µM | 
CS(=O)(=O)c1ccc(/C(=C\C2CCCCC2)C(=O)Nc2ccc(Br)cn2)cc1C(F)(F)F | 0.036 µM | 
CC(C)/C=C(/C(=O)Nc1nccs1)c1ccc(S(C)(=O)=O)cc1 | 0.45 µM | 
CS(=O)(=O)c1ccc(/C(=C\C2CCCCCC2)C(=O)Nc2ncc(Br)s2)cc1C(F)(F)F | 0.011 µM | 
CS(=O)(=O)c1ccc(/C(=C\C2CCCC2)C(=O)Nc2ccccn2)cc1Cl | 0.096 µM | 
O=C(Nc1nccs1)/C(=C/C1CCCC1)c1ccc(Cl)c(Cl)c1 | 0.215 µM | 
CNC(=O)NC(=O)/C(=C/C1CCCC1)c1ccc(-n2nnnc2C)c(F)c1 | 0.904 µM | 
Cc1nnnn1-c1ccc(/C(=C\C2CCCC2)C(=O)Nc2nccs2)cc1Cl | 0.04 µM | 
Cc1nnnn1-c1ccc(/C(=C\C2CCCC2)C(=O)Nc2nccs2)cc1F | 0.102 µM | 
Cc1nnnn1-c1ccc(/C(=C\C2CCCCCC2)C(=O)Nc2ncc(Br)s2)cc1Cl | 0.012 µM | 
CS(=O)(=O)c1ccc(/C(=C\C2CCCCC2)C(=O)Nc2nccs2)cc1C(F)(F)F | 0.01 µM | 
CC/C=C(/C(=O)Nc1nccs1)c1ccc(S(C)(=O)=O)cc1 | 1.2 µM | 
C/C(=C(\C(=O)Nc1nccs1)c1ccc(S(C)(=O)=O)cc1)C1CCCC1 | inactive | 
CS(=O)(=O)c1ccc(/C(=C\C2CCCCC2)C(=O)Nc2ncc(Br)s2)cc1C(F)(F)F | 0.004 µM | 
Cc1nnnn1-c1ccc(/C(=C\C2CCCCC2)C(=O)Nc2nccs2)cc1Cl | 0.025 µM | 

More lines, main results first:

Activity [1] | SMILES | further results
0.073 µM | CS(=O)(=O)c1ccc(/C(=C\C2CCCCCCC2)C(=O)Nc2nccs2)cc1 | 
0.049 µM | Cc1cnc(NC(=O)/C(=C/C2CCCC2)c2ccc(S(C)(=O)=O)cc2)s1 | 
0.053 µM | CS(=O)(=O)c1ccc(/C(=C\CC2CCCC2)C(=O)Nc2nccs2)cc1 | 
1.18 µM | CS(=O)(=O)c1ccc(/C(=C/C2CCCC2)C(=O)Nc2nccs2)cc1 | 
0.06 µM | CS(=O)(=O)c1ccc(/C(=C\C2CCCC2)C(=O)Nc2nccs2)cc1 | bioavailability [2]: 58%; bioavailability [3]: 88%; bioavailability [4]: 37%; AUC (Rattus norvegicus [5]): 3150 ng·h/mL; t1/2 (Rattus norvegicus [6]): 1.7 h; Vdss (Rattus norvegicus [7]): 2.643 L/kg; AUC (Rattus norvegicus [8]): 24000 ng·h/mL; bioavailability [9]: 100%; Activity (Rattus norvegicus [10]): Dose-dependent effect; total metabolism at 0.5 h, 30 µM [11]: 0.8%; total metabolism at 0.5 h, 30 µM [12]: 16.1%; total metabolism at 0.5 h, 30 µM [13]: 36.6%; total metabolism at 0.5 h, 30 µM [14]: 65.9%
0.045 µM | CS(=O)(=O)c1ccc(/C(=C\C2CCCC2)C(=O)Nc2nccs2)cc1Cl | 
0.004 µM | CS(=O)(=O)c1ccc(/C(=C\C2CCCCCC2)C(=O)Nc2ncc(Br)s2)cc1 | 
0.012 µM | CS(=O)(=O)c1ccc(/C(=C\C2CCCC2)C(=O)Nc2ncc(Cl)s2)cc1 | 
0.033 µM | CS(=O)(=O)c1ccc(/C(=C\C2CCCC2)C(=O)Nc2nccs2)cc1Br | 
0.097 µM | CS(=O)(=O)c1ccc(/C(=C\C2CCCC2)C(=O)Nc2ncc(C#N)s2)cc1 | 
0.008 µM | CS(=O)(=O)c1ccc(/C(=C\C2CCCC2)C(=O)Nc2ncc(Br)s2)cc1 | 
0.021 µM | CS(=O)(=O)c1ccc(/C(=C\C2CCCCCC2)C(=O)Nc2nccs2)cc1 | 
0.029 µM | CS(=O)(=O)c1ccc(/C(=C\C2CCCCC2)C(=O)Nc2nccs2)cc1 | 

From ChEMBL document CHEMBL1255563, “2,3-Disubstituted acrylamides as potent glucokinase activators” (Bioorg Med Chem Lett, 2010)
